Values quoted from earlier work, collected in patent US6415234B1, “Designing inhibitors for glycosyltransferases” (Glyco Design Inc., priority 1998, dated 2002).

Conditions: polarised continuum model

solvation free energy in water: -195.8 kcal/mol
SMILES: O=P(O)(O)OP(=O)(O)O [pyrophosphate dianion]
